Measured values published in patent publication US11352344B2, “Antagonists of the muscarinic acetylcholine receptor M4” (Vanderbilt University, priority 2017, dated 2022).

How the values were obtained:
Human M4 = target: T1, Human M4 (Homo sapiens, UniProt P08173); test: mAChR M4 cell-based functional assay (calcium flux, antagonism of EC80 acetylcholine response); conditions: for remaining activity at 30 µM: % ACh maximum at 30 μM, human M4, read-out: Emin; for IC50: M4/Gqi5/CHO-K1 cells, decrease of response to EC80 acetylcholine
T1 construct: expressed in transfected cells; host or cells: CHO-K1 (Chinese hamster ovary) cells, stably co-transfected with Gqi5
T1 sequence (P08173 1-479): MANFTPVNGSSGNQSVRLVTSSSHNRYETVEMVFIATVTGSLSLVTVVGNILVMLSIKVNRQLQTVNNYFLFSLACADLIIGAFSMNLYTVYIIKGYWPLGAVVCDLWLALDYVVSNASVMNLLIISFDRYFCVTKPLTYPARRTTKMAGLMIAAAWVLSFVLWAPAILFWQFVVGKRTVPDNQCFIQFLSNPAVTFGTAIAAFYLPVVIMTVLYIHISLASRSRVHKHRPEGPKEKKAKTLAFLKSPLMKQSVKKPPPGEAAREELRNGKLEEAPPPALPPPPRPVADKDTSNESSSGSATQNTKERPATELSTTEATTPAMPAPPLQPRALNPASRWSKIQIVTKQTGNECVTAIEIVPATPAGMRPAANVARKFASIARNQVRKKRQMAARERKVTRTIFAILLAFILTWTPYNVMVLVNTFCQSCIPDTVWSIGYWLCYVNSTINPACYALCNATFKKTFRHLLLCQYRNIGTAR
Procedure: Human or rat M4 cDNA, along with the chimeric G protein Gqi5, were transfected into Chinese hamster ovary (CHO-K1) cells purchased from the American Type Culture Collection using Lipofectamine2000. M4/Gqi5/CHO cells were grown in Ham's F-12 medium containing 10% heat-inactivated fetal bovine serum (FBS), 20 mM HEPES, 500 μg/mL G418 sulfate, and 200 μg/mL Hygromycin B.
For high throughput measurement of agonist-evoked increases in intracellular calcium, CHO-K1 cells stably expressing muscarinic receptors were plated in growth medium lacking G418 and hygromycin at 15,000 cells/20 μL/well in Greiner 384-well black-walled, tissue culture (TC)-treated, clear-bottom plates (VWR). Cells were incubated overnight at 37° C. and 5% CO2. The next day, cells were washed using an ELX 405 (BioTek) with assay buffer; the final volume was then aspirated to 20 μL. Next, 20 μL of a 2.3 μM stock of Fluo-4/acetoxymethyl ester (Invitrogen, Carlsbad, Calif.), prepared as a 2.3 mM stock in DMSO and mixed in a 1:1 ratio with 10% (w/v) Pluronic F-127 and diluted in assay buffer, was added to the wells and the cell plates were incubated for 50 min at 37° C. and 5% CO2. Dye was removed by washing with the ELX 405 and the final volume was aspirated to 20 μL. Compound master plates were formatted in a 10 point concentration-response curve (CRC) format (1:3 dilutions) in 100% DMSO with a starting concentration of 10 or 1 mM using a BRAVO liquid handler (Agilent). Test compound CRCs were then transferred to daughter plates (240 nL) using the Echo acoustic plate reformatter (Labcyte, Sunnyvale, Calif.) and then diluted into assay buffer (40 μL) to a 2× stock using a Thermo Fisher Combi (Thermo Fisher Scientific, Waltham, Mass.).
Calcium flux was measured using the Functional Drug Screening System (FDSS) 6000 or 7000 (Hamamatsu Corporation, Tokyo, Japan) as an increase in the fluorescent static ratio. Compounds were applied to cells (20 μL, 2×) using the automated system of the FDSS at 2 seconds into the protocol and the data were collected at 1 Hz. At 143 s, 10 μL of an EC20 concentration of the muscarinic receptor agonist acetylcholine was added (5×), followed by the addition of 12 μL of an EC80 concentration of acetylcholine at the 268 s time point (5×). Agonist activity was analyzed as a concentration-dependent increase in calcium mobilization upon compound addition. Positive allosteric modulator activity was analyzed as a concentration-dependent increase in the EC20 acetylcholine response. Antagonist activity was analyzed as a concentration-dependent decrease in the EC80 acetylcholine response; for the purposes of the tables herein, an IC50 (inhibitory concentration 50) was calculated as a concentration-dependent decrease of the response elicited by an EC80 concentration of acetylcholine. Concentration-response curves were generated using a four-parameter logistical equation in XLFit curve fitting software (IDBS, Bridgewater, N.J.) for Excel (Microsoft, Redmond, Wash.) or Prism (GraphPad Software, Inc., San Diego, Calif.) or the Dotmatics software platform (Dotmatics, Bishop's Stortford, UK).
Compounds were synthesized as described above. Activity (IC50 and Emin) was determined in the mAChR M4 cell-based functional assay as described above and the data are shown in Table 5. The compound numbers correspond to the compound numbers used in Examples 1-4 and Tables 1-4.

M4 knockout mice = conditions: but not the other four mAChR subtypes (M1-3,5); cited from earlier work
mice = test: haloperidol-induced catalepsy, a model of parkinsonian motor disability; assay type: in vivo
Source text: Furthermore, haloperidol-induced catalepsy, a model of parkinsonian motor disability, is reduced in M4 knockout mice as compared to wild-type controls. […] The reversal by scopolamine was uncommonly robust and more pronounced than we observe with agents targeting a number of other targets being evaluated for potential antiparkinsonian effects, including metabotropic glutamate (mGlu) receptors mGlu4 or mGlu5, A2A adenosine receptors, and NMDA receptors. […] Taken together with the extensive studies of M4 modulation of basal ganglia and motor function, these studies provide compelling evidence that M4 is the dominant mAChR subtype involved in the antiparkinsonian effects of non-selective mAChR antagonists and provide support for discovery and development of selective M4 antagonists for treatment of neurodegenerative disease such as PD, dystonia, tardive dyskinesia and other movement disorders.

Row | Structure (SMILES) | remaining activity at 30 µM (Human M4) | IC50 (Human M4) | locomotor-activating effects (M4 knockout mice) | reducing catalepsy induced by haloperidol (mice; M4 KO mice) | reversal of catalepsy induced by haloperidol (mice; WT mice)
1 | Cc1cnn(C)c1-c1ccc(NCC2CCC3CN(CC4CC5C=CC4C5)CC23)nn1 (stereo not drawn) [Compound 21, N-[[2-(5-bicyclo[2.2.1]hept-2-enylmethyl)-3,3a,4,5,6,6a-hexahydro-1H-cyclopenta[c]pyrrol-4-yl]methyl]-6-(2,4-dimethylpyrazol-3-yl)pyridazin-3-amine] | 5.19% | 55 nM | – | – | –
2 | Cc1cccnc1CN1CC2CCC(CNc3ccc(-c4c(C)cnn4C)nn3)C2C1 (stereo not drawn) [Compound 22, 6-(2,4-dimethylpyrazol-3-yl)-N-[[2-[(3-methyl-2-pyridyl)methyl]-3,3a,4,5,6,6a-hexahydro-1H-cyclopenta[c]pyrrol-4-yl]methyl]pyridazin-3-amine] | 10.8% | 1500 nM | – | – | –
3 | Cc1cnn(C)c1-c1ccc(NCC2CCC3CN(CCc4ccccc4)CC23)nn1 (stereo not drawn) [Compound 23, 6-(2,4-dimethylpyrazol-3-yl)-N-[[2-(2-phenylethyl)-3,3a,4,5,6,6a-hexahydro-1H-cyclopenta[c]pyrrol-4-yl]methyl]pyridazin-3-amine] | 5.96% | 766 nM | – | – | –
4 | Cc1cnn(C)c1-c1ccc(NCC2CCC3CN(CC4CCCOC4)CC23)nn1 (stereo not drawn) [Compound 24, 6-(2,4-dimethylpyrazol-3-yl)-N-[[2-(tetrahydropyran-3-ylmethyl)-3,3a,4,5,6,6a-hexahydro-1H-cyclopenta[c]pyrrol-4-yl]methyl]pyridazin-3-amine] | 22.6% | > 10000 nM | – | – | –
5 | Cc1cnn(C)c1-c1ccc(NCC2CCC3CN(CC4CCOCC4)CC23)nn1 (stereo not drawn) [Compound 25, 6-(2,4-dimethylpyrazol-3-yl)-N-[[2-(tetrahydropyran-4-ylmethyl)-3,3a,4,5,6,6a-hexahydro-1H-cyclopenta[c]pyrrol-4-yl]methyl]pyridazin-3-amine] | 27.8% | > 10000 nM | – | – | –
6 | Cc1cnn(C)c1-c1ccc(NCC2CCC3CN(Cc4ccccc4)CC23)nn1 (stereo not drawn) [Compound 26, N-[(2-benzyl-3,3a,4,5,6,6a-hexahydro-1H-cyclopenta[c]pyrrol-4-yl)methyl]-6-(2,4-dimethylpyrazol-3-yl)pyridazin-3-amine] | 16.1% | > 10000 nM | – | – | –
7 | CN1[C@@H]2C[C@@H](OC(=O)[C@H](CO)c3ccccc3)C[C@H]1[C@@H]1O[C@@H]12 [scopolamine] | – | – | dramatically reduced | ineffective | completely reversed
